Reference: patent US7741344B2, “Process for preparing purified S-BEL and R-BEL and compositions thereof” (Washington University in St. Louis, priority 2002, dated 2010)
Read-outs that look alike come from different tables or passages of the source.

Key:
α-chymotrypsin = target: T1, α-chymotrypsin (Bos taurus, UniProt P00766); assay: Inhibition of α-chymotrypsin by BEL; format: biochemical; conditions: 2 μM chymotrypsin, up to 5-fold molar excess of inhibitor, 5 min 22° C., then 1000-fold dilution with 100 mM hydrazine; FIG. 3
T1 construct: purchased Sigma
Description: Inhibition of α-Chymotrypsin by BEL—The kinetics of α-chymotrrpsin inactivation by (R)-, (S)-, and rac-BEL were performed similar to methods previously described (36). The concentration of α-chymotrypsin (MW=25,000) was determined using an A^1%=20 (1 cm pathlength) at 280 nm (37). Briefly, one milliliter of α-chymotrypsin (2 μM) was incubated with up to a 5-fold molar excess of (R)-,(S)-, or rac-BEL dissolved in acetonitrile or vehicle alone for 5 mm at 22° C. in 0.1 M sodium phosphate buffer, pH 7.2. […] Following incubation at 22° C. for 1 hr, chymotrypsin activity in each diluted sample was measured utilizing a SPECTRAmax GeminiXS microplate spectrofluorometer with N-succinyl-Ala-Ala-Pro-Phe-7-amidomethylcoumarin (50 μM) as substrate for 1 mm at 25° C. Excitation and emission wavelengths were 380 nm and 460 nm, respectively.
Chymotrypsin (2 μM) in 0.1 M sodium phosphate buffer, pH 7.2 was incubated with the indicated concentrations of racemic, (R)-, or (S)-BEL for 5 mm. This solution was then diluted 1000-fold in 0.1 M sodium phosphate buffer, pH 7.2 containing 100 mM hydrazine and incubated for 1 hr at 22° C. Chymotrypsin proteolytic activity was measured spectrofluorometrically using N-succinyl-Ala-Ala-Pro-Phe-7-amido-4-methylcoumarin (50 μM) as substrate.

[1] = tested on: PAP-1 in human amnionic WISH cells; conditions: ≈25 μM; (34); cited from earlier work
[2] = tested on: PAP-1 in mouse P388D1 macrophages; conditions: ≈25 μM; (33); cited from earlier work
[3] = tested on: cytosolic phosphatidate phosphohydrolase (PAP-1); assay: Cytosolic phosphatidate phosphohydrolase activity of A-10 cell cytosol fraction; format: biochemical, rat; conditions: concentrations up to 200 μM BEL; FIG. 6A
Description: (§1) Measurement of Cytosolic and Membrane-bound Phosphatidate Phosphohydrolase Activities—A-10 cells were grown to confluency, washed twice in ice-cold phosphate-buffered saline, and harvested in lysis buffer (50 mM Tris-HCl, pH 7.4 containing 0.25 M sucrose and 0.2 mM DTT). After brief sonication utilizing a Vibra-Cell VC4O sonicator (5×1 s pulses at 30% power), the lysed cell suspension was centrifuged at 100,000×g for 1 hr to separate cytosolic and membrane fractions. In some tests, A-10 cells were washed and pretreated with BEL or ethanol vehicle (as described above for tests examining [^3H]-AA liberation) before isolation of cell homogenates. […] Reactions were terminated with 900 μL of 5% acetic acid and extracted into chloroform by the method of Bligh and Dyer (38) prior to separating dipaliitoyl glycerol by TLC utilizing chloroform: methanol: water (65:35:2) as the mobile phase prior to quantification by scintillation spectrometry.
(§2) A-10 cells plated on 100 mm dishes were washed 2× in ice-cold PBS and harvested in lysis buffer (50 mM Tris-HCl, pH 7.4 containing 0.25 M sucrose and 0.2 mM DTT). […] In panel B, intact A-10 cells were washed and pretreated with BEL or ethanol vehicle (as described in FIG. 5) before isolation of the cell homogenate and quantification of phosphatidate phosphohydrolase activity as described above. […]

[4] = tested on: cytosolic PAP-1 in McA-RH7777 rat hepatoma cells; conditions: 100 μM BEL; (17); cited from earlier work
[5] = tested on: membrane-bound phosphatidate phosphohydrolase (PAP-2); assay: Membrane-bound phosphatidate phosphohydrolase activity of A-10 cell membrane fraction; format: biochemical, rat; conditions: concentrations up to 200 μM BEL; FIG. 6A
Description: as §1, §2

[6] = tested on: iPLA2 vs. cPLA2 and SPLA2 family members; conditions: (31, 32); cited from earlier work
A-10 cells = conditions: cited from earlier work
A-10 smooth muscle cells = conditions: prior studies (10, 29), cited from earlier work
P388D1 macrophages = conditions: up to 5 μM BEL; (15); cited from earlier work

| SMILES | inhibition of chymotrypsin (α-chymotrypsin) | inhibition of PAP-1 in human amnionic WISH cells [1] | inhibition of PAP-1 in mouse P388D1 macrophages [2] | effect on cytosolic (PAP-1) phosphatidate phosphohydrolase [3] | inhibition of cytosolic PAP-1 activity in McA-RH7777 cells [4] | effect on membrane-bound (PAP-2) phosphatidate phosphohydrolase [5] | selectivity iPLA2 vs. cPLA2 and SPLA2 family members [6] | release of IP2 or IP3 in A-10 cells (A-10 cells) | inhibition of AVP-inducible arachidonic acid release (A-10 smooth muscle cells; 2 μM BEL pretreatment) | inhibition of AVP-inducible arachidonic acid release (A-10 smooth muscle cells; 5 μM BEL pretreatment) | levels of diacylglycerol or phosphatidic acid formed upon stimulation with zymosan (P388D1 macrophages) |
| --- | --- | --- | --- | --- | --- | --- | --- | --- | --- | --- | --- |
| O=C1O/C(=C/Br)CC[C@@H]1c1cccc2ccccc12 [(R)-BEL, (R)(E)-6-(bromomethylene)-3-(1-naphthalenyl)-2H-tetrahydropyran-2-one] | stoichiometrically and irreversibly inhibited | – | – | – | – | – | – | – | – | – | – |
| O=C1OC(=CBr)CCC1c1cccc2ccccc12 (racemic) [rac-BEL, Racemic (E)-6-(bromomethylene)-3-(1-naphthalenyl)-2H-tetrahydropyran-2-one] | – | effectively inhibit | effectively inhibit | lack of any effect | not significantly inhibited | lack of any effect | 1000 fold | does not inhibit | ≈ 60% | ~80% | does not significantly effect |
